Test results published in the supplement of paper PMC10307832.

What was measured:
Assay in all cases: relative viability (nuclei count vs DMSO), 5 days (fraction); higher = more cells survive
SK-LU-1 = tested on: SK-LU-1
In short: (§1)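 Lung cancer cell lines were pin-tool dosed in 1536-well plates on the day after seeding, with either a lone drug or a fixed anchor-drug dose plus five library-drug doses (not always all listed) in √10 steps. Nuclei were counted on 4× images after 5 days. Relative viability is the ratio of treated-well to vehicle-well nuclei counts, with each value a median of duplicate plates.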

NCI-H2405 = tested on: NCI-H2405
In short: as §1

LCLC-103H = tested on: LCLC-103H
In short: as §1

NCI-H661 = tested on: NCI-H661
In short: as §1

201T = tested on: 201T
In short: as §1

NCI-H1651 = tested on: NCI-H1651
In short: as §1

LOU-NH91 = tested on: LOU-NH91
In short: as §1

EMC-BAC-2 = tested on: EMC-BAC-2
In short: as §1

NCI-H1975 = tested on: NCI-H1975
In short: as §1

EPLC-272H = tested on: EPLC-272H
In short: as §1

ABC-1 = tested on: ABC-1
In short: as §1

NCI-H647 = tested on: NCI-H647
In short: as §1

For O=C(O)CCCCC(CCSCc1ccccc1)SCc1ccccc1 (configuration not stated) [CPI-613] + CS(=O)(=O)N1CCN(Cc2cc3nc(-c4cccc5[nH]ncc45)nc(N4CCOCC4)c3s2)CC1 [Pictilisib] (partner 1 µM), the relative viability (SK-LU-1; first compound 158.11 µM) was 0.46, the relative viability (SK-LU-1; first compound 500 µM) was 0.264 and the relative viability (NCI-H2405; first compound 5 µM) was 0.493. It also gave a relative viability (NCI-H2405; first compound 15.81 µM) of 0.331, a relative viability (NCI-H2405; first compound 50 µM) of 0.425 and a relative viability (NCI-H2405; first compound 158.11 µM) of 0.388. It also gave a relative viability (NCI-H2405; first compound 500 µM) of 0.421, a relative viability (LCLC-103H; first compound 5 µM) of 0.55 and a relative viability (LCLC-103H; first compound 15.81 µM) of 0.578. The relative viability (LCLC-103H; first compound 50 µM) was 0.581, the relative viability (LCLC-103H; first compound 158.11 µM) was 0.539 and the relative viability (LCLC-103H; first compound 500 µM) was 0.653. It also gave a relative viability (NCI-H661; first compound 5 µM) of 0.36, a relative viability (NCI-H661; first compound 15.81 µM) of 0.428 and a relative viability (NCI-H661; first compound 50 µM) of 0.442. For the same compound, the relative viability (NCI-H661; first compound 158.11 µM) was 0.355, the relative viability (NCI-H661; first compound 500 µM) was 0.367 and the relative viability (201T; first compound 5 µM) was 0.722. It also gave a relative viability (201T; first compound 15.81 µM) of 0.654, a relative viability (201T; first compound 50 µM) of 0.667 and a relative viability (201T; first compound 158.11 µM) of 0.665. The relative viability (201T; first compound 500 µM) was 0.647, the relative viability (NCI-H1651; first compound 5 µM) was 0.591 and the relative viability (NCI-H1651; first compound 15.81 µM) was 0.504. The relative viability (NCI-H1651; first compound 50 µM) was 0.572, the relative viability (NCI-H1651; first compound 158.11 µM) was 0.331 and the relative viability (NCI-H1651; first compound 500 µM) was 0.0986. It also gave a relative viability (LOU-NH91; first compound 5 µM) of 0.499, a relative viability (LOU-NH91; first compound 15.81 µM) of 0.519 and a relative viability (LOU-NH91; first compound 50 µM) of 0.541. It also gave a relative viability (LOU-NH91; first compound 158.11 µM) of 0.532, a relative viability (LOU-NH91; first compound 500 µM) of 0.511 and a relative viability (EMC-BAC-2; first compound 5 µM) of 0.549. It also gave a relative viability (EMC-BAC-2; first compound 15.81 µM) of 0.483, a relative viability (EMC-BAC-2; first compound 50 µM) of 0.556 and a relative viability (EMC-BAC-2; first compound 158.11 µM) of 0.556. It also gave a relative viability (EMC-BAC-2; first compound 500 µM) of 0.133, a relative viability (NCI-H1975; first compound 5 µM) of 0.292 and a relative viability (NCI-H1975; first compound 15.81 µM) of 0.225. It also gave a relative viability (NCI-H1975; first compound 50 µM) of 0.314, a relative viability (NCI-H1975; first compound 158.11 µM) of 0.258 and a relative viability (NCI-H1975; first compound 500 µM) of 0.0574. For the same compound, the relative viability (EPLC-272H; first compound 5 µM) was 0.251, the relative viability (EPLC-272H; first compound 15.81 µM) was 0.28 and the relative viability (EPLC-272H; first compound 50 µM) was 0.369. It also gave a relative viability (EPLC-272H; first compound 158.11 µM) of 0.246, a relative viability (EPLC-272H; first compound 500 µM) of 0.339 and a relative viability (ABC-1; first compound 5 µM) of 0.771. For the same compound, the relative viability (ABC-1; first compound 15.81 µM) was 0.68, the relative viability (ABC-1; first compound 50 µM) was 0.807 and the relative viability (ABC-1; first compound 158.11 µM) was 0.384. It also gave a relative viability (ABC-1; first compound 500 µM) of 0.246, a relative viability (NCI-H647; first compound 5 µM) of 0.58 and a relative viability (NCI-H647; first compound 15.81 µM) of 0.315. The relative viability (NCI-H647; first compound 50 µM) was 0.384, the relative viability (NCI-H647; first compound 158.11 µM) was 0.424 and the relative viability (NCI-H647; first compound 500 µM) was 0.412.
